Consider 1 compound from PMC11237774, “On-target, dual aminopeptidase inhibition provides cross-species antimalarial activity” (mBio, 2024).

Where two headings read alike, the source gives them in different places.

The target in one data set is Pb-M17 (Plasmodium berghei, UniProt A0A509APA2). In words: Recombinant aminopeptidase fluorescence assay (H-Leu-NHMec). In kind it is biochemical. Particulars: Pb M17, Morrison equation; read-out: Ki^(app) ± SEM. As to the method:
(§1) Inhibition of aminopeptidase activity assays were performed against nine aminopeptidases: the M1 alanyl and M17 leucyl aminopeptidases from P. falciparum (PfA-M1; PfA-M17), P. vivax (Pv-M1; Pv-M17), and P. berghei (Pb-M1; Pb-M17), and three human M1 homologs: LTA4H (OriGene TP307617), ERAP1 (OriGene TP314469), and ERAP2 (Creative BioMart ERAP2-304H). The Plasmodium enzymes were produced recombinantly as described previously ([16], [17]), and the human recombinant enzymes were purchased from commercial suppliers as indicated.
(§2) The concentration of H-Leu-NHMec in the assay was held constant for each enzyme and ranged from 10 to 100 µM, depending on the enzyme. Reactions were measured at 37°C in white 384-well plates in a total volume of 25 or 50 µL using a spectrofluorimeter (BMG FLUOstar) with excitation at 355 nm and emission at 460 nm. The fluorescence signal was continuously monitored until a final steady-state velocity, v, was obtained. Inhibition constants were calculated from biological triplicates made from three different protein preparations.
(§3) Substrate concentrations were selected to allow sensitive detection of enzyme activity while not exceeding the Km for each enzyme. A compound concentration range was selected to obtain a complete inhibition curve (0%–100 %) in biological triplicate. Where possible, the Ki values were calculated by plotting the initial rates versus inhibitor concentration and fitting to the Morrison equation for tight-binding inhibitors in GraphPad Prism (V.8.4.1; non-linear regression method).

Data set [1] is described as follows: Metabolic stability in cryopreserved hepatocytes. The class given is in vitro ADME. As to conditions: pH 7.4, read-out: in vitro hepatocyte CLint. As to the method: (§4) Samples were collected over the incubation period, quenched by the addition of an equal volume of acetonitrile, and analyzed using a Waters Acquity UPLC and Xevo G2 QTOF mass spectrometer with positive electrospray ionization under the MS^E mode. The natural log of the substrate concentration was plotted against the incubation time to determine the first-order degradation rate constant which was normalized to the microsomal protein concentration to give the in vitro intrinsic clearance (in vitro CLint, µL/min/mg microsomal protein). […] Cell viability was determined by Trypan Blue exclusion. At various times over the incubation period, samples were quenched with the addition of an equal volume of acetonitrile and analyzed as described above. Metabolite identification was conducted by accurate mass and tandem mass spectrometry (MS/MS) analysis.

Another data set deals with T1, PfA-M17 (Plasmodium falciparum, UniProt Q8IL11).
T1 construct: made in house
The experiment in a line: Recombinant aminopeptidase fluorescence assay (H-Leu-NHMec). The class given is biochemical, P. falciparum. As to conditions: Pf M17, Morrison equation; read-out: Ki^(app) ± SEM. As to the method: as §1, §2, §3

A further data set has as its system K1. In words: microbe, parasite or virus in culture. The class given is cell-based, P. falciparum. Particulars: Plasmodium falciparum, read-out: EC50 nM (mean). As to the method:
(§5) In vitro testing was performed using the modified [^3H]hypoxanthine incorporation assay, as previously reported ([34]). The specific mutations in the field isolates (see Table 1, top six strains) have been previously described ([35], [36]), as have the specific mutations in the laboratory-selected Dd2 parasites (see Table 1, remaining five strains) ([36]).

A further data set concerns NF54. In words: microbe, parasite or virus in culture. The class given is cell-based, P. falciparum. As to conditions: Plasmodium falciparum. As to the method:
as §5

Another data set has as its system TM90C2B. In words: microbe, parasite or virus in culture. Particulars: Plasmodium falciparum, read-out: EC50 nM (mean). The class given is cell-based, P. falciparum. As to the method:
as §5

A further data set deals with Cam3.1 (MRA1240). The experiment in a line: microbe, parasite or virus in culture. The class given is cell-based, P. falciparum. Particulars: Plasmodium falciparum, read-out: EC50 nM (mean). As to the method:
as §5

The next data set concerns Dd2. In words: microbe, parasite or virus in culture. The class given is cell-based, P. falciparum. As to conditions: Plasmodium falciparum, DD2, read-out: EC50 nM (mean). As to the method: as §5
The test system of the next data set is 7G8. The experiment in a line: microbe, parasite or virus in culture. The class given is cell-based, P. falciparum. As to conditions: Plasmodium falciparum, read-out: EC50 nM (mean). As to the method:
as §5

Data set [2] addresses human aminopeptidase N (APN or CD13). Further details: method as in PMID 30537832. As to conditions: cited from earlier work.
A short description of data set [3]: Plasma protein binding by ultracentrifugation. The class given is in vitro ADME, human. Particulars: plasma (10% plasma diluted with PBS), pH 7.4. As to the method: Human plasma was obtained from the Volunteer Blood Donor Registry (Walter & Eliza Hall Institute, Melbourne, Australia), rat plasma was from male Sprague-Dawley rats (Animal Resource Centre, Perth, Western Australia) and mouse plasma was procured as described above. RPMI-1640 media supplemented with 25 mM HEPES, 2 g/L sodium bicarbonate, and 100 mg/L neomycin were additionally supplemented with 5 […] on the day prior to binding assessment. […] Additional aliquots of spiked matrix were maintained at 37°C for 4.2 h but not centrifuged to serve as controls for stability assessment and to obtain a measure of the total concentration in each matrix. Following centrifugation, aliquots of the protein-free supernatant and the non-centrifuged matrix controls were “matrix matched” by addition of an equal volume of the opposite medium (i.e., either blank buffer or blank matrix) and assayed as described above with comparison to calibration standards prepared in 50% matrix/50% PBS.

The subject of data set [4] is Pf3D7. The experiment in a line: Parasite killing rate (wash-out) assay. The class given is cell-based, P. falciparum. Particulars: washout after 24 or 48 h of treatment, 10× EC50, parasites traversed a trophozoite stage. As to the method: Assays were performed as previously described ([7]). […] Parasite cultures incubated for 48 h were fed at 24 h with fresh media containing compound. […] Once thawed, cultures were analyzed using SYBR Green I as described above. Parasite viability was determined as a percentage of vehicle-treated controls, and experiments were performed in four biological replicates.

Data set [5] relates to Pf3D7. In words: Parasite reduction ratio assay. The class given is cell-based, P. falciparum. As to the method: Assays were performed as described previously with some alterations ([37]). […] Specifically, media containing compound was placed in wells every 24 h for up 120 h. […] Parasite growth was measured at day 21 using SYBR green I as described above. Fluorescence was used to determine at what treatment day wells became positive for growth when compared with the well before it; greater than double the fluorescence was determined to be a positive well. […] Experiments were performed in two or three biological replicates in quadruplicate.

Data set [6] is described as follows: Metabolic stability in liver microsomes. In kind it is in vitro ADME. Particulars: read-out: in vitro microsomal CLint. As to the method: as §4

Sequence of Pb-M17 (A0A509APA2 entry or part of it): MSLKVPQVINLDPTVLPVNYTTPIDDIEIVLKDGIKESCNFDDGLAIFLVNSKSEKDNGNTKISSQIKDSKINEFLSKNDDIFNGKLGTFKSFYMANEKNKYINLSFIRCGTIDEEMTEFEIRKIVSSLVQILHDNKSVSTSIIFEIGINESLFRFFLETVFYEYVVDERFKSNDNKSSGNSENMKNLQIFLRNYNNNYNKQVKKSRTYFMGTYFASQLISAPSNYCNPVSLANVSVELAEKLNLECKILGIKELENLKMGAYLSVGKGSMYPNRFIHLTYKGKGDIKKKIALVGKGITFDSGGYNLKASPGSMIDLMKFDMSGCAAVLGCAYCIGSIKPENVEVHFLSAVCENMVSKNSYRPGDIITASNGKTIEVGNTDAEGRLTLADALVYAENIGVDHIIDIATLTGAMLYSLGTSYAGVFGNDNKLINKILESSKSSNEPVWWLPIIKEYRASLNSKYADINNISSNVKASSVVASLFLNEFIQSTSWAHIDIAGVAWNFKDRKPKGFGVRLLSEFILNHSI
T1 sequence (Q8IL11 84-605): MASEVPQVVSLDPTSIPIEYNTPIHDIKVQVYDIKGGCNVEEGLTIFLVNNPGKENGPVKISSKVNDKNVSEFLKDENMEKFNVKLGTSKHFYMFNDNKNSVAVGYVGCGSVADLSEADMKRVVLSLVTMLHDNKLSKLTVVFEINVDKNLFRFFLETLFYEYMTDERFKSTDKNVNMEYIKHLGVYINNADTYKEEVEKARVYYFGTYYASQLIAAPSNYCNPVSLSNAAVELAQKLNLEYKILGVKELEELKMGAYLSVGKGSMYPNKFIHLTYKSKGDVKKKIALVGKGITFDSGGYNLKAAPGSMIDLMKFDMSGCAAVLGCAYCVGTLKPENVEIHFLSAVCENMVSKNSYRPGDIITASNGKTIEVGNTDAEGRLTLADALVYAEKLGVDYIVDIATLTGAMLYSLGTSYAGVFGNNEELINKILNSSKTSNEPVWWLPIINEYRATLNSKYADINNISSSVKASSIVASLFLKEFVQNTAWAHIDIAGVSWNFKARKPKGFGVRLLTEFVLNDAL

Take `CC(C)(C)CC(=O)NC(C(=O)NO)c1ccc(-c2cc(F)c(F)c(F)c2)cc1` (stereo not drawn) [MMV1557817, N-(2-(hydroxyamino)−2-oxo-1-(3′,4′,5′-trifluoro-[1,1′-biphenyl]-4-yl)ethyl)-3,3-dimethylbutanamide]: the figures for the Ki (at Pb-M17; on PfA-M17; in [2]) were 130 ± 7 nM, 112 nM and 300 nM, respectively. Besides, the intrinsic metabolic clearance (hepatocyte CLint) at 1 µM in data set [1] (human cryopreserved hepatocytes) amounted to 2 µL/min/1e6 cells; in data set [1] (rat cryopreserved hepatocytes), 4 µL/min/1e6 cells. For the same compound, the concentration giving a half-maximal response (EC50) was determined as 26 nM with K1; 3.4 nM in the data set with NF54 (NF54, read-out: unbound EC50); 22 nM in the data set on NF54 (NF54, sensitive strain, read-out: EC50 nM (mean)); 21 nM in the data set on TM90C2B; 23 nM in the data set with Cam3.1 (MRA1240); 23 nM in the data set on Dd2. For the same compound, in the data set on 7G8, the EC50 was determined as 28 nM. For the same compound, the fraction unbound at 4.2 h is 0.01 to 0.02 in data set [3] (Sprague-Dawley (rat plasma), human, summary in text over the plasma species tested, read-out: bound to plasma proteins) and 0.012 in [3] (human plasma, read-out: Plasma protein binding (converted)). The parasite survival result in the data set on Pf3D7 [4] is listed as “less than 10%”. Also, in the data set on Pf3D7 [5] (Pf3D7, 10× EC50), the “99.9% PCT” value was determined as 86 h. Also, the Lag phase in the data set on Pf3D7 [5] (Pf3D7, 10× EC50) is 72 h. The “Log (PRR)” value in the data set with Pf3D7 [5] (Pf3D7, 10× EC50, over one cycle) was 2.2 ± 0.2. In addition, the microsomal CLint at 1 µM in data set [6] (human liver microsomes) is 11 µL/min/mg; in [6] (mouse liver microsomes), 23 µL/min/mg; in data set [6] (rat liver microsomes), 29 µL/min/mg.
